“And” between values parts separate entries of the source, which are not always exact repeats. Identical values can stand only once. “Also recorded” adds a separate entry of the source. Like-named read-outs stand apart in the source and are kept apart here.
What was measured:
Cdc42 = Cdc42 (Homo sapiens, UniProt P60953); assay: Cdc42 activity (Table 1A); assay type: cell-based; settings: class by % inhibition at stated concentration
GFP-HER2-BM cells = assay: Cell viability assay (CellTiter 96 / MTT), GFP-HER2-BM; assay type: cell-based; settings: Homo sapiens, 120 h
From the text: (§1) Effect of MBQ-167 on cell survival.

MDA-MB-231 cells [1] = assay: Bright field microscopy of cell polarity, rounding and detachment, MDA-MB-231; assay type: cell-based, human
Description: (§2) FIGS. 2A, 2B, 2C. Breast cancer cell phenotype following MBQ-167 treatment.
(§3) Human breast cancer cells were visualized by bright field microscopy following MBQ-167 treatment. At ≥100 nM, starting at six hours, MBQ-167 induced a loss of polarity in metastatic breast cancer cells. […] On the other hand, non-cancer mammary epithelial MCF10A and epithelial breast cancer MCF-7 cells were resistant to MBQ-167 and remained polarized and attached to each other and the substratum (FIG. 2A).
FIG. 2A; FIG. 2B. […] At ≥100 nM, starting at six hours MBQ-167 induces a loss of polarity and detachment from the substratum in MDA-MB-231 metastatic breast cancer cells but not in MCF-7 non-metastatic human breast cancer cells. 250 nM MBQ-167 results in ˜70% of the cells losing polarity and assuming a rounded phenotype. Higher concentrations of MBQ-167, i.e. 500 nM for 24 h results in a ˜90% loss in cell polarity and detaches from the substratum.

MCF10A and MCF-7 cells = assay: Bright field cell phenotype, epithelial cells; assay type: cell-based, human; settings: up to 500 nM
Description: as §2, §3

[2] = tested on: GFP-HER2-BM mammary fat pad tumors; assay: Mammary fat pad tumor growth, GFP-HER2-BM cells in nude mice; assay type: in vivo; settings: for reduction in tumor growth: 65 days; for Optimal % Change in Tumor Size (% T/C): day 65, control = 100; for Time in Days for Doubling of Tumor size, 2^1: control 8; for Time in Days for Doubling of Tumor size, 2^2: control 14.5; for Time in Days for Doubling of Tumor size, 2^3: control 27.7; for Time in Days for Doubling of Tumor size, 2^4: control 33.3
Description: FIGS. 6A-1, 6A-2, 6B, 6C, 6D, 6E. In-vivo efficacy of MBQ-167 in HER2-type breast cancer.
To test the effect of MBQ-167 on mammary tumor progression, nude mice were used to establish mammary fatpad tumors from GFP-HER2-BM cells. One week following mammary tumor establishment, the mice were treated 3× a week with 0, 1, or 10 mg/kg BW MBQ-167 by i.p. for 65 days.
Mice were treated with vehicle (12.5% ethanol, 12.5% Cremophor (Sigma-Aldrich, St. Louis, Mo.), and 75% 1×PBS pH 7.4), or 1 or 10 mg/kg BW MBQ-167 by i.p. injection in a 100 μL volume 3× a wk. Treatments continued until sacrifice at day 65.

[3] = Toxicity observation: mouse weight and phenotype; assay type: in vivo, mice; settings: 65-day study, 1 and 10 mg/kg BW; listed as MBQ-167
From the text: The mice from this study were also examined once a week for potential toxicity. […] At necropsy, livers were harvested, lysed and subjected to liver enzyme assays as a test for potential toxic effects.

PAK = assay: Western blot of PAK activity, MCF-7 cells; assay type: cell-based, human; settings: MCF-7, 250 nM, 24 h; listed as MBQ-167
[4] = tested on: p38-MAPK, p42/44 MAPK, Akt; assay: Western blot of MAPK and Akt signaling, MDA-MB-231; assay type: cell-based, human; settings: 250 nM, 24 h
From the text: FIGS. 13A, 13B. MAPK and Akt signaling in MDA-MB-231 cells. […] Representative western blots of N=3 are shown.

MDA-MB-231 cells [5] = assay: Cell cycle progression by flow cytometry (PI), MDA-MB-231; assay type: cell-based, human; settings: 250 nM; listed as MBQ-167
Description: as §1
MDA-MB-231 cells were incubated with 0 or 250 nM MBQ-167 for 48 h and all cells (detached and attached) were stained with PI, as in (27). Cell cycle stage was analyzed using a four-color flow cytometer (FACSCalibur, BD Biosciences, San Jose, Calif.). A total of 20,000 events were analyzed for each sample. List-mode files were collected using Cell Quest software 3.3 and analyzed using the Flow Jo software vX.0.7 (BD Biosciences, San Jose, Calif.).

[6] = tested on: Saccharomyces cerevisiae (expresses only Cdc42); assay: Yeast bud polarity and growth; settings: 100 microM
MDA-MB-231 cells [7] = assay: Transwell cell migration assay, MDA-MB-231; settings: 250 and 500 nM, attached population
Bcl-2, Bcl-xL, Mcl-1 = assay: Western blot of pro-survival proteins, MDA-MB-231; settings: 250 nM, 24 h
[8] = Cell viability assay (CellTiter 96 / MTT), MDA-MB-231; settings: human
MDA-MB-231 cells [9] = assay: as above
Rho = Rho activation pulldown (Rhotekin), GFP-HER2-BM cells; settings: 24 h, listed as MBQ-167
[10] = tested on: GFP-MDA-MB-231 mammary fat pad tumors; assay: Mammary fat pad tumor growth, GFP-MDA-MB-231 cells in SCID mice; settings: 50 days

Sequence of Cdc42 (P60953 whole entry): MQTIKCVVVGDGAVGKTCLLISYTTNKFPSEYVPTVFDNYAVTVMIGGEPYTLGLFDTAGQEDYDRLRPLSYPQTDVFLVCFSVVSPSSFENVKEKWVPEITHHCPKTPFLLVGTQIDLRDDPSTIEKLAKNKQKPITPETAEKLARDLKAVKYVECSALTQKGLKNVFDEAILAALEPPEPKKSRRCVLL

Compound: CCn1c2ccccc2c2cc(-n3nncc3-c3ccccc3)ccc21 [I-1, 9-ethyl-3-(5-phenyl-1H-1,2,3-triazol-1-yl)-9H-carbazole]
- Cdc42 activity (Cdc42): A (>50% inhibition at 250 nM)
- GI50 (GFP-HER2-BM cells): 150 nM
- cells losing polarity and assuming a rounded phenotype (MDA-MB-231 cells [1]; 250 nM): ~70%
- cell rounding / loss of polarity and detachment from the substratum (MDA-MB-231 cells [1]; 500 nM, 24 h, listed as MBQ-167): ~90% and ~95%
- concentration inducing loss of polarity (MDA-MB-231 cells [1]; starting at six hours): ≥ 100 nM
- cell rounding and detachment phenotype (MCF10A and MCF-7 cells): resistant
- reduction in tumor growth ([2]; 1.0 mg/kg BW i.p. 3x a week): ~80%
- Optimal % Change in Tumor Size (% T/C) ([2]; 1 mg/kg BW i.p. 3x a week): 58%
- Time in Days for Doubling of Tumor size, 2^1 ([2]; 1 mg/kg BW): 10 days
- Time in Days for Doubling of Tumor size, 2^2 ([2]; 1 mg/kg BW): 30 days
- Time in Days for Doubling of Tumor size, 2^3 ([2]; 1 mg/kg BW): 57 days
- Time in Days for Doubling of Tumor size, 2^4 ([2]; 1 mg/kg BW): never reached
- reduction in tumor growth ([2]; 10 mg/kg BW i.p. 3x a week): ~95%
- Optimal % Change in Tumor Size (% T/C) ([2]; 10 mg/kg BW i.p. 3x a week): 9%
- reduction of mammary fat pad tumor size ([2]; 10 mg/kg BW, by 2 months): 91%
- Time in Days for Doubling of Tumor size, 2^1 ([2]; 10 mg/kg BW): 11 days
- Time in Days for Doubling of Tumor size, 2^2 ([2]; 10 mg/kg BW): 30 days
- Time in Days for Doubling of Tumor size, 2^3 ([2]; 10 mg/kg BW): never reached
- Time in Days for Doubling of Tumor size, 2^4 ([2]; 10 mg/kg BW): never reached
- inhibition of mammary tumor growth and metastasis ([2]; immunocompromised mice): ~90%
- weight loss or phenotypic changes [3]: did not show any significant weight loss or phenotypic changes; also recorded: does not exert toxic effects
- effect on PAK activity (PAK): did not affect; also recorded: does not inhibit
- effect on p38-MAPK, p42/44 MAPK and Akt activities [4]: did not affect
- effect on cell cycle (MDA-MB-231 cells [5]): significantly arrested the cell cycle of MDA-MB-231 cells in the G2/M phase; also recorded: G2/M phase arrest
- effect on yeast bud polarity and growth [6]: inhibited yeast bud polarity and growth
- reduction of directed migration (MDA-MB-231 cells [7]): 60-70%
- expression of pro-survival proteins Bcl-2, Bcl-xL, Mcl-1 (Bcl-2, Bcl-xL, Mcl-1): significant decrease
- viability at 24 h, 5 µM ([8]; MDA-MB-231, GFP-HER2-BM, MCF-7 and MCF-10 cells): ~75%
- viability at 24 h, 0.3 µM ([8]; MDA-MB-231 cells): 100%
- cell death (MDA-MB-231 cells [9]; 1000 nM, 120 h, all cell types (MDA-MB-231, GFP-HER2-BM, MCF10A)): ~100%
- GI50 (MDA-MB-231 cells [9]; 120 h, listed as MBQ-167): 0.11 µM
- GI50 (MDA-MB-231 cells [9]; Homo sapiens, MDA-MB-231, 120 h, 120 h): ~0.13 µM
- GI50 (MDA-MB-231 cells [9]; Homo sapiens, MDA-MB-231, read-out: GI50 (μM) MDA-MB-231, MDA-MB-231): 0.128 µM
- effect on Rho activity (Rho): did not affect; also recorded: does not affect
- inhibition of tumor growth ([10]; 1.0 mg/kg BW i.p. 3x a week): 90%
- inhibition of tumor growth ([10]; 5.0 mg/kg BW i.p. 3x a week): 95%
- inhibition of tumor growth ([10]; 10 mg/kg BW i.p. 3x a week): 100%
